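Dose response: 5 concentrations. Exposure: 48 h. Format: 96-well plates. Endpoint: linear interpolation; highest concentration if not reached. Definition used: TGI = concentration required for complete inhibition of growth.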
Legend:
Test in all cases: inhibition of tumour cell growth, NCI panel, 48 h
OVCAR-5 ovarian = tested on: OVCAR-5 ovarian
OVCAR-3 ovarian = tested on: OVCAR-3 ovarian
NCI/ADR-RES ovarian = tested on: NCI/ADR-RES ovarian
U251 CNS = tested on: U251 CNS
IGROV1 ovarian = tested on: IGROV1 ovarian
NCI-H460 lung = tested on: NCI-H460 lung
SF-539 CNS = tested on: SF-539 CNS
KM12 colon = tested on: KM12 colon
EKVX NSCLC = tested on: EKVX NSCLC
M14 melanoma = tested on: M14 melanoma
OVCAR-8 ovarian = tested on: OVCAR-8 ovarian
HT29 colon = tested on: HT29 colon

SMILES | TGI (OVCAR-5 ovarian) [µM] | TGI (OVCAR-3 ovarian) [µM] | TGI (NCI/ADR-RES ovarian) [µM] | TGI (U251 CNS) [µM] | TGI (IGROV1 ovarian) [µM] | TGI (NCI-H460 lung) [µM] | TGI (SF-539 CNS) [µM] | TGI (KM12 colon) [µM] | TGI (EKVX NSCLC) [µM] | TGI (M14 melanoma) [µM] | TGI (OVCAR-8 ovarian) [µM] | TGI (HT29 colon) [µM]
COc1cc(C(=O)N(C(=S)OCc2ccccn2)c2ccccc2)cc(OC)c1OC | > 100 | > 100 | > 100 | > 100 | 79.6 | > 100 | 81 | > 100 | 79.9 | > 100 | > 100 | > 100
CCCCCCCCCCCCCCNC(=O)CCC(NC(=O)c1ccc(N(C)Cc2cnc3nc(N)nc(N)c3n2)cc1)C(=O)NCCCCCCCCCCCCCC (centres undefined) | > 48.3 | > 46 | > 100 | 32.6 | 27.3 | 13.1 | 16.3 | 18 | > 100 | > 40.4 | 39.8 | 27
Cc1ccc(C(=O)O)cc1S(=O)(=O)Nn1cnc2ccc(S(=O)(=O)Nc3ccccc3C(=O)O)cc2c1=O | > 100 | > 100 | > 100 | > 100 | > 100 | > 100 | > 100 | > 100 | > 100 | > 100 | > 100 | > 100
COc1ccc(N/N=C2\CCOc3ccc(C)cc3C2=O)cc1 | > 100 | > 100 | > 100 | 66 | > 100 | 53.7 | > 100 | > 100 | > 100 | > 100 | > 100 | 61.1
NC(N)=N/N=C/c1c(-c2ccc(N)cc2)nc2sccn12 | 46.8 | 67.3 | > 100 | 64.1 | > 100 | 76.8 | 63.9 | > 100 | 61.1 | 57.9 | > 100 | 56.8
CCCCCCc1cc2cc(-c3csc(CC#N)n3)c(=O)oc2cc1O | > 100 | > 100 | > 100 | > 100 | > 100 | > 100 | > 64.5 | > 100 | > 100 | > 100 | > 100 | > 100
COc1cc(Br)cc2cc(-c3cn4ccsc4n3)c(=O)oc12 | > 100 | > 100 | > 100 | > 100 | > 100 | > 100 | > 100 | 56.5 | > 100 | > 100 | > 100 | > 100
Nn1c(-c2ccccc2)nn(C(=O)c2ccccc2)c1=O | > 100 | > 100 | > 100 | > 100 | > 100 | > 100 | > 100 | > 100 | > 100 | > 100 | > 100 | > 100
C[C@]12CCC(O)CC1=CC[C@@H]1[C@@H]2CC[C@]2(C)C(=O)[C@H](n3ccnc3)C[C@@H]12 (some centres undefined) | > 100 | > 100 | > 100 | > 100 | > 100 | > 100 | > 100 | > 100 | > 100 | > 100 | > 100 | > 100
O=c1[nH]c(Nc2cccc(CC(F)(F)F)c2)nc2nc[nH]c12 | > 100 | > 100 | > 100 | > 100 | > 100 | > 100 | > 100 | > 100 | > 100 | > 100 | > 100 | > 100
O=C1CC(NC(=O)C(F)(F)F)c2c(Br)sc(N3CCNCC3)c21 (centres undefined) | > 100 | > 100 | > 100 | > 100 | > 100 | > 100 | > 100 | > 100 | > 100 | > 100 | > 100 | > 100
COc1cc2nc3n(c(=O)c2cc1OC)-c1ccc([N+](=O)[O-])cc1C3=O | > 100 | > 100 | > 100 | > 100 | > 100 | > 100 | > 100 | > 100 | > 100 | > 100 | > 100 | > 100
CC(=O)OC1CC(OC2C(O)CC(OC3C(O)CC(OC4CCC5(C)C(CCC6C5CC(O)C5(C)C(C7=CC(=O)OC7)CCC65O)C4)OC3C)OC2C)OC(C)C1OC1OC(CO)C(O)C(O)C1O (centres undefined) | 0.222 | 0.15 | 0.122 | 0.207 | 1.11 | 0.0678 | 0.0891 | 0.519 | 0.0981 | 0.343 | 0.204 | 0.252
O=c1c2cc([N+](=O)[O-])cnc2sn1-c1ccc([N+](=O)[O-])cc1 | > 100 | > 100 | 99.3 | > 100 | > 100 | > 100 | > 100 | 62.4 | > 100 | > 100 | > 100 | 55.8
COc1cc2c(c(OC)c1OC)C(=O)[C@@H]1[C@H]2N1C(N)=O | > 100 | > 100 | > 100 | > 100 | > 100 | > 100 | > 100 | > 100 | > 100 | > 100 | > 100 | > 100
COC(=O)C1SC(SC)=NC12c1ccccc1Nc1ccccc12 (centres undefined) | > 100 | 45.8 | > 100 | 66.6 | > 100 | 56.1 | 35.4 | > 100 | > 100 | 40.1 | > 100 | > 100
CCOC(=O)C1(C/C=C/CBr)Cc2ccccc2C1=O (centres undefined) | 20.1 | 4.54 | 5.02 | 14.8 | 10.3 | 4.21 | 3.39 | 10.8 | 28.7 | 11.6 | 7.34 | 11.8
